Values of other authors as cited in patent US20150182481A1, “USE OF POLYMER D-LACTIC ACID (PDLA) TO TREAT PAIN” (priority 2013, published 2015).

Experiments:
[1] = system: C fibers; conditions: 300 mM lactic acid injection
[2] = system: nerve poisoned by iodoacetic acid (I.A.A.) and continuously tetanized; conditions: I.A.A. solution containing lactate 180 mg/100 cc

In the case of `C[C@H](O)C(=O)O` [lactic acid, L-Lactic acid], the “firing of C fibers” value [1] is listed as “increase firing of C fibers”.
In the case of `C[C@@H](O)C(=O)O` [d-lactic acid], the “plasma d-lactate in asymptomatic exercising subjects” value (asymptomatic exercising subjects) is given as 12 mM and the “average plasma concentration at which neurotoxic” value (reversible altered mental status, dysarthria, ataxia) is given as 7.98 mM.
For `CC(O)C(=O)[O-].[Na+]` (stereo not shown) [sodium lactate], the “effect on sustained galvanic contractions of the nerve” value [2] is given as “enhances repeated nerve tetanization”.
